Results from the supplement of paper PMC10307832.

Compound: C(C(=O)C(=O)O)Br [Bromopyruvate] + Cc1nc(NC(=O)N2CCC[C@H]2C(N)=O)sc1-c1ccnc(C(C)(C)C(F)(F)F)c1 [Alpelisib] (partner 2 µM)
Experiment: relative viability (nuclei count vs DMSO), 5 days (fraction); higher = more cells survive
Conditions: first compound 1 µM
How it was run: (§1)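 One day after seeding in 1536-well plates, lung cancer cell lines were dosed by pin tool. Dosing was either single-drug or a fixed anchor-drug dose plus five library-drug doses (not always all listed) in √10 steps. After 5 days, nuclei were stained in one fix-and-stain step and counted on 4× images, and relative viability is the nuclei count of treated wells over that of vehicle wells, given as the median of duplicate plates.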

Cell Line	relative viability
BEN	0.985
HARA	0.792
NCI-H441	0.835
NCI-H2023	0.613
A-427	1.12
NCI-H460	0.432
NCI-H727	0.683
NCI-H1734	0.624
NCI-H520	0.844
NCI-H2405	0.773
SW 1573	0.761
NCI-H1395	1.02
201T	1.02
NCI-H1915	1.03
HCC-827	1.03

Same assay, conditions: first compound 3.162 µM

Cell Line	relative viability
EMC-BAC-2	0.771
NCI-H2087	1.14
NCI-H1666	1.07
NCI-H647	1.15
LK-2	0.991
NCI-H2126	0.755
SK-MES-1	0.878
H3255	0.647
COR-L23	0.849
COR-L 105	1.34
LOU-NH91	0.732
NCI-H3122	0.831
HOP-62	1.06
HCC-44	0.83
LU99A	0.491
BEN	1.05
HARA	0.868
NCI-H441	1.01
NCI-H2023	0.728
A-427	1.07
NCI-H460	0.603
NCI-H727	0.66
NCI-H1734	0.728
NCI-H520	1.08
NCI-H2405	0.779
SW 1573	0.84
NCI-H1395	1.46
201T	0.989
NCI-H1915	1.05
HCC-827	0.988

Same assay, conditions: first compound 10 µM

Cell Line	relative viability
EMC-BAC-2	0.897
NCI-H2087	1.02
NCI-H1666	1.11
NCI-H647	1.46
LK-2	1.14
NCI-H2126	0.768
SK-MES-1	0.915
H3255	0.86
COR-L23	0.9
COR-L 105	1.23
LOU-NH91	0.721
NCI-H3122	0.859
HCC-44	0.859
LU99A	0.512
BEN	1.15
HARA	1.04
NCI-H441	0.714
LCLC-97TM1	0.272
NCI-H2023	0.593
A-427	1.09
NCI-H460	0.594
NCI-H727	0.629
NCI-H1734	0.684
NCI-H520	0.884
NCI-H2405	0.89
SW 1573	0.876
NCI-H1395	1.26
201T	0.944
NCI-H1915	1.04
HCC-827	0.972

Same assay, conditions: first compound 31.62 µM

Cell Line	relative viability
EMC-BAC-2	0.747
NCI-H2087	1.25
NCI-H1666	1.02
NCI-H647	1.48
LK-2	1.16
NCI-H2126	0.751
SK-MES-1	0.868
H3255	0.856
COR-L23	0.665
COR-L 105	1.02
LOU-NH91	0.775
NCI-H3122	0.729
HOP-62	0.426
HCC-44	0.916
LU99A	0.561
BEN	0.957

Cell Line	relative viability
HARA	0.802
NCI-H441	0.658
LCLC-97TM1	0.302
NCI-H2023	0.646
A-427	1.05
NCI-H460	0.374
NCI-H727	0.547
NCI-H1734	0.663
NCI-H520	0.896
NCI-H2405	0.583
SW 1573	0.678
NCI-H1395	1.06
201T	0.998
NCI-H1915	1.12
HCC-827	1.02

Same assay, conditions: first compound 100 µM

Cell Line	relative viability
EMC-BAC-2	0.826
NCI-H2087	0.829
NCI-H1666	0.774
NCI-H647	1.2
LK-2	1.22
NCI-H2126	0.744
SK-MES-1	1.01
H3255	0.783
COR-L23	0.405
COR-L 105	0.768
LOU-NH91	0.868
NCI-H3122	0.718
HOP-62	0.698
HCC-44	0.863
LU99A	0.483
BEN	1.07

Cell Line	relative viability
HARA	0.858
NCI-H441	0.547
LCLC-97TM1	0.183
NCI-H2023	0.542
A-427	1.02
NCI-H460	0.436
NCI-H727	0.597
NCI-H1734	0.704
NCI-H520	0.875
NCI-H2405	0.737
SW 1573	0.761
NCI-H1395	0.991
201T	1.08
NCI-H1915	1.08
HCC-827	0.967

Compound: CC(O)(CS(=O)(=O)c1ccc(F)cc1)C(=O)Nc1ccc(C#N)c(C(F)(F)F)c1 [Bicalutamide] + C[C@]1(O)C[C@@H](c2nc(-c3ccc4ccc(-c5ccccc5)nc4c3)c3c(N)nccn32)C1 [Linsitinib] (partner 1 µM)
Experiment: as above
Conditions: first compound 0.08 µM
How it was run: as §1

Cell Line	relative viability
EMC-BAC-2	0.854
NCI-H2087	1.03
NCI-H1666	0.814
NCI-H647	1.2
LK-2	0.715
NCI-H2126	0.737
SK-MES-1	1.14
H3255	0.949
COR-L23	0.997
COR-L 105	0.941
LOU-NH91	0.921
NCI-H3122	1.01
HOP-62	0.89
HCC-44	0.67
LU99A	0.512
BEN	1.04

Cell Line	relative viability
HARA	0.953
NCI-H441	0.6
LCLC-97TM1	0.185
NCI-H2023	0.721
A-427	1.16
NCI-H460	0.854
NCI-H727	0.234
NCI-H1734	0.87
NCI-H520	0.941
NCI-H2405	0.897
SW 1573	0.834
NCI-H1395	1.22
201T	1.04
NCI-H1915	1.11
HCC-827	0.945

Same assay, conditions: first compound 0.253 µM

Cell Line	relative viability
EMC-BAC-2	0.796
NCI-H2087	1.07
NCI-H1666	0.8
NCI-H647	1.17
LK-2	0.349
NCI-H2126	0.724
SK-MES-1	1.07
H3255	0.848
COR-L23	0.919
COR-L 105	0.93
LOU-NH91	0.778
NCI-H3122	1.04
HOP-62	0.903
HCC-44	0.664
LU99A	0.486
BEN	0.802
HARA	0.797
LCLC-97TM1	0.188
NCI-H2023	0.723
A-427	1.15
NCI-H460	0.556
NCI-H727	0.356
NCI-H1734	0.76
NCI-H520	0.875
NCI-H2405	0.873
SW 1573	0.647
NCI-H1395	1.03
201T	1.02
NCI-H1915	1.13
HCC-827	0.896

Same assay, conditions: first compound 0.8 µM

Cell Line	relative viability
EMC-BAC-2	0.803
NCI-H2087	0.95
NCI-H1666	0.932
NCI-H647	1.48
LK-2	0.64
NCI-H2126	0.731
SK-MES-1	1.07
H3255	1.08
COR-L23	1.16
COR-L 105	0.899
LOU-NH91	0.96
NCI-H3122	1.04
HOP-62	0.963
HCC-44	0.691
LU99A	0.566
BEN	1.26

Cell Line	relative viability
HARA	1.06
NCI-H441	0.863
LCLC-97TM1	0.199
NCI-H2023	0.597
A-427	1.21
NCI-H460	0.986
NCI-H727	0.295
NCI-H1734	0.947
NCI-H520	1.12
NCI-H2405	1.06
SW 1573	0.887
NCI-H1395	1.09
201T	1.07
NCI-H1915	1.1
HCC-827	0.993

Same assay, conditions: first compound 2.53 µM

Cell Line	relative viability
EMC-BAC-2	0.756
NCI-H2087	0.77
NCI-H1666	0.955
NCI-H647	0.955
LK-2	0.657
NCI-H2126	0.68
SK-MES-1	1.04
H3255	0.867
COR-L23	0.732
COR-L 105	0.815
LOU-NH91	1.01
NCI-H3122	1.07
HOP-62	1.02
HCC-44	0.788
LU99A	0.47
BEN	0.966

Cell Line	relative viability
HARA	1.1
NCI-H441	0.404
LCLC-97TM1	0.185
NCI-H2023	0.715
A-427	1.18
NCI-H460	0.672
NCI-H727	0.269
NCI-H1734	0.863
NCI-H520	0.815
NCI-H2405	0.901
SW 1573	0.647
NCI-H1395	1
201T	1.04
NCI-H1915	1.03
HCC-827	0.964
